From PubChem BioAssay AID330 (DTP/NCI, 2004) come the findings set out here.

The test system of the test is P388 leukemia ip, CD2F1 mice, survival T/C. The experiment in a line: NCI In Vivo Anticancer Drug Screen. Data for tumor model P388 Leukemia (intraperitoneal) in CD2F1 (CDF1) mice. The settings on record: endpoint: median survival time, higher = longer survival. In outline:
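Mice carrying the transplanted tumor received test compound or vehicle. Survival was recorded in each group, and the value is the treated-group measurement divided by that of the vehicle-treated control group.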

The mark [1] stands for this setting: dose: 50.0 mg/kg/injection, schedule: Q01DX009 (ip), vehicle: Klucel (hydroxypropylcellulose) (HPC).
The mark [2] stands for this setting: dose: 100.0 mg/kg/injection, schedule: Q01DX009 (ip), vehicle: Klucel (hydroxypropylcellulose) (HPC).
The mark [3] stands for this setting: dose: 200.0 mg/kg/injection, schedule: Q01DX009 (ip), vehicle: Klucel (hydroxypropylcellulose) (HPC).
[4] abbreviates: dose: 50.0 mg/kg/injection, schedule: Q01DX009 (ip), vehicle: saline.
Setting [5] is: dose: 100.0 mg/kg/injection, schedule: Q01DX009 (ip), vehicle: saline.

Values joined by “and” are separate entries in the source; they are usually repeats but may differ in a detail not shown here. Equal entries are not always repeated. Inconclusive results and toxic doses are left out.

With `COc1ccc(CS(=O)(=O)c2cnc(=O)[nH]c2N)cc1OC`, the T/C (dose: 100.0 mg/kg/injection, schedule: Q04DX002 (ip), vehicle: saline) was 93 % of control; the T/C (dose: 200.0 mg/kg/injection, schedule: Q04DX002 (ip), vehicle: saline) was 101 % of control; the T/C (dose: 400.0 mg/kg/injection, schedule: Q04DX002 (ip), vehicle: saline) is 93 % of control.

`O=C1c2cccc3cccc(c23)C2C1N2C1CCCCC1` (stereo unspecified): the T/C reads like this: (dose: 25.0 mg/kg/injection, schedule: Q01DX001 (ip), vehicle: saline sonified) 95 % of control; (dose: 50.0 mg/kg/injection, schedule: Q01DX001 (ip), vehicle: saline sonified) 104 % of control; (dose: 100.0 mg/kg/injection, schedule: Q01DX001 (ip), vehicle: saline sonified) 86 % of control.

Turning to `CCOC1(C2(O)CCCCC2)CC(C)=NO1` (stereo unspecified), the T/C is, setting by setting: (dose: 100.0 mg/kg/injection, schedule: Q04DX002 (ip), vehicle: Klucel (hydroxypropylcellulose) (HPC)) 104 % of control; (dose: 200.0 mg/kg/injection, schedule: Q04DX002 (ip), vehicle: Klucel (hydroxypropylcellulose) (HPC)) 98 % of control; (dose: 400.0 mg/kg/injection, schedule: Q04DX002 (ip), vehicle: Klucel (hydroxypropylcellulose) (HPC)) 102 % of control.

Turning to `O=C(Nc1cc(Cl)c([N+](=O)[O-])cc1O)c1ccco1`, the T/C runs as follows: under setting [1], 106 % of control; under setting [2], 99 % of control; under setting [3], 98 % of control.

Take `CCCCCCCC[N+]1([O-])CCCCC1`: the T/C was 97 % of control under setting [4] and 102 % of control under setting [5].

In the case of `Cc1cc[n+](Cc2cc3ccccc3nc2Cl)cc1C`, the T/C (dose: 3.75 mg/kg/injection, schedule: Q01DX005 (ip), vehicle: saline) was 110 % of control; the T/C (dose: 7.5 mg/kg/injection, schedule: Q01DX005 (ip), vehicle: saline) was 93 % of control; the T/C (dose: 15.0 mg/kg/injection, schedule: Q01DX005 (ip), vehicle: saline) was 104 % of control; the T/C (dose: 30.0 mg/kg/injection, schedule: Q01DX005 (ip), vehicle: saline) is 107 % of control.

For `Cc1nc(Nc2c(C)cccc2C)c2c(-c3ccccc3)c[nH]c2n1`, the T/C by setting is: (dose: 50.0 mg/kg/injection, schedule: Q01DX005 (ip), vehicle: Klucel (hydroxypropylcellulose) (HPC)) 99 % of control; (dose: 100.0 mg/kg/injection, schedule: Q01DX005 (ip), vehicle: Klucel (hydroxypropylcellulose) (HPC)) 94 % of control; (dose: 200.0 mg/kg/injection, schedule: Q01DX005 (ip), vehicle: Klucel (hydroxypropylcellulose) (HPC)) 92 % of control.

Turning to `Cc1c2cc[n+](C)c(C)c2cc2c1[nH]c1ccc(O)cc12`, the T/C is 157 % of control (dose: 10.0 mg/kg/injection, schedule: Q04DX002 (ip), vehicle: water); 162 % of control (dose: 20.0 mg/kg/injection, schedule: Q04DX002 (ip), vehicle: water); 89 % of control (dose: 40.0 mg/kg/injection, schedule: Q04DX002 (ip), vehicle: water); 88 % of control (dose: 50.0 mg/kg/injection, schedule: Q04DX002 (ip), vehicle: water).

For the molecule `C=COC(=O)N(C)C`, the T/C is, setting by setting: (dose: 25.0 mg/kg/injection, schedule: Q01DX009 (ip), vehicle: saline) 110 % of control; under setting [4], 118 % of control; under setting [5], 115 % of control; (dose: 200.0 mg/kg/injection, schedule: Q01DX009 (ip), vehicle: saline) 120 % of control.

For the molecule `CN/N=C(/C)C(=O)O`, the T/C was 106 % of control (dose: 50.0 mg/kg/injection, schedule: Q01DX005 (ip), vehicle: saline); 99 % of control (dose: 100.0 mg/kg/injection, schedule: Q01DX005 (ip), vehicle: saline); 99 % of control (dose: 200.0 mg/kg/injection, schedule: Q01DX005 (ip), vehicle: saline).

Consider `Cc1cc(Br)ccc1N`, for which the T/C reads like this: (dose: 100.0 mg/kg/injection, schedule: Q01DX009 (ip), vehicle: saline with Tween-80) 110 % of control; (dose: 200.0 mg/kg/injection, schedule: Q01DX009 (ip), vehicle: saline with Tween-80) 110 % of control; (dose: 400.0 mg/kg/injection, schedule: Q01DX009 (ip), vehicle: saline with Tween-80) 105 % of control.

On to `Nc1ncnc2c1ncn2C(/C=N/Nc1ccccc1)OC(/C=N\Nc1ccccc1)CO` (stereo unspecified), for which the T/C (dose: 50.0 mg/kg/injection, schedule: Q01DX005 (ip), vehicle: saline with Tween-80) is 106 % of control; the T/C (dose: 100.0 mg/kg/injection, schedule: Q01DX005 (ip), vehicle: saline with Tween-80) is 106 % of control; the T/C (dose: 200.0 mg/kg/injection, schedule: Q01DX005 (ip), vehicle: saline with Tween-80) is 107 % of control.

Turning to `Cc1c2oc3c(C)c([N+](=O)[O-])cc(C(=O)NC4C(=O)NC(C(C)C)C(=O)N5CCCC5C(=O)N(C)CC(=O)N(C)C(C(C)C)C(=O)OC4C)c3nc-2c(C(=O)NC2C(=O)NC(C(C)C)C(=O)N3CCCC3C(=O)N(C)CC(=O)N(C)C(C(C)C)C(=O)OC2C)c(N)c1=O` (stereo unspecified), the T/C is, setting by setting: (dose: 0.01 mg/kg/injection, schedule: Q01DX009 (ip), vehicle: Klucel (hydroxypropylcellulose) (HPC)) 90 % of control; (dose: 0.02 mg/kg/injection, schedule: Q01DX009 (ip), vehicle: Klucel (hydroxypropylcellulose) (HPC)) 106 % of control; (dose: 0.04 mg/kg/injection, schedule: Q01DX009 (ip), vehicle: Klucel (hydroxypropylcellulose) (HPC)) 108 % of control; (dose: 0.08 mg/kg/injection, schedule: Q01DX009 (ip), vehicle: Klucel (hydroxypropylcellulose) (HPC)) 120 % of control and 217 % of control; (dose: 0.3 mg/kg/injection, schedule: Q01DX009 (ip), vehicle: Klucel (hydroxypropylcellulose) (HPC)) 218 % of control.

`CC(C)OCCCN(Cn1c(=S)sc2ccccc21)Cn1c(=S)sc2ccccc21`: the T/C under setting [1] is 91 % of control, the T/C under setting [2] was 89 % of control and the T/C under setting [3] is 87 % of control.

For `CCC(=O)c1cccc2c(C=O)c(Cl)n(C(=O)CC)c12`, the T/C was 100 % of control (dose: 50.0 mg/kg/injection, schedule: Q01DX001 (ip), vehicle: Klucel (hydroxypropylcellulose) (HPC)); 100 % of control (dose: 100.0 mg/kg/injection, schedule: Q01DX001 (ip), vehicle: Klucel (hydroxypropylcellulose) (HPC)); 101 % of control (dose: 200.0 mg/kg/injection, schedule: Q01DX001 (ip), vehicle: Klucel (hydroxypropylcellulose) (HPC)).

Take `N#CCSc1nc(N)nc2nc[nH]c12`: the T/C (dose: 50.0 mg/kg/injection, schedule: Q01DX009 (ip), vehicle: saline sonified) was 95 % of control; the T/C (dose: 50.0 mg/kg/injection, schedule: Q04DX003 (ip), vehicle: saline with Tween-80) is 95 % of control; the T/C (dose: 100.0 mg/kg/injection, schedule: Q01DX009 (ip), vehicle: saline sonified) is 100 % of control; the T/C (dose: 100.0 mg/kg/injection, schedule: Q04DX003 (ip), vehicle: saline with Tween-80) is 100 % of control; the T/C (dose: 200.0 mg/kg/injection, schedule: Q01DX009 (ip), vehicle: saline sonified) was 95 % of control; the T/C (dose: 200.0 mg/kg/injection, schedule: Q04DX003 (ip), vehicle: saline with Tween-80) was 95 % of control.

In the case of `COc1cccc2c(NCCCNCCCNc3c4ccccc4nc4c(OC)cccc34)c3ccccc3nc12`, the T/C (dose: 5.0 mg/kg/injection, schedule: Q01DX009 (ip), vehicle: other) is 153 % of control and the T/C (dose: 10.0 mg/kg/injection, schedule: Q01DX009 (ip), vehicle: other) was 157 % of control.

As to `CC(C)(C)c1ccc(C(=O)Nc2ccc(S(N)(=O)=O)cc2)cc1`, the T/C under setting [1] was 100 % of control, the T/C under setting [2] is 100 % of control and the T/C under setting [3] was 101 % of control.

With `CO/C=N/c1cn2c(n1)CN=C2`, the T/C is 102 % of control (dose: 100.0 mg/kg/injection, schedule: Q01DX001 (ip), vehicle: saline); 95 % of control (dose: 200.0 mg/kg/injection, schedule: Q01DX001 (ip), vehicle: saline); 96 % of control (dose: 400.0 mg/kg/injection, schedule: Q01DX001 (ip), vehicle: saline).

In the case of `C/C=C/c1cc(OC)c2c(c1)[C@H](C)C(c1ccc(O)c(OC)c1)O2` (stereo partly specified), the T/C was 106 % of control (dose: 37.5 mg/kg/injection, schedule: Q01DX005 (ip), vehicle: Klucel (hydroxypropylcellulose) (HPC)); 97 % of control (dose: 75.0 mg/kg/injection, schedule: Q01DX005 (ip), vehicle: Klucel (hydroxypropylcellulose) (HPC)); 95 % of control (dose: 150.0 mg/kg/injection, schedule: Q01DX005 (ip), vehicle: Klucel (hydroxypropylcellulose) (HPC)).
